Laboratory results as given in the supplement of paper PMC5844555.

What was measured:
Assay in all cases: 3' UTR reporter interaction score (median-centred robust z-score of log2 firefly/Renilla activity); higher = less repression of the 3' UTR reporter
Settings in all cases: HEK293T; 48 h
PHF6 = system: PHF6
Procedure, shortened: (§1)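 In at least two independent screens, HEK293T cells in 96-well plates (10,000/well) were co-transfected with DharmaFECT Duo using 100 ng firefly luc2P reporter with the gene's 3' UTR, 20 ng Renilla pRL-TK control and 2.5 pmol miRNA mimic, and dual-luciferase activities were read at 48 h. The interaction score, averaged across screens, is the per-plate robust z-score (median, median absolute deviation) of the log firefly/Renilla ratio, median-centred per miRNA, with more negative indicating interaction.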

BRCA2 = system: BRCA2
Procedure, shortened: as §1

FBXW7 = system: FBXW7
Procedure, shortened: as §1

EZH2 = system: EZH2
Procedure, shortened: as §1

MYC = system: MYC
Procedure, shortened: as §1

NOTCH1 = system: NOTCH1
Procedure, shortened: as §1

ZEB2 = system: ZEB2
Procedure, shortened: as §1

RB1 = system: RB1
Procedure, shortened: as §1

PHOX2B = system: PHOX2B
Procedure, shortened: as §1

MYB = system: MYB
Procedure, shortened: as §1

MYT1L = system: MYT1L
Procedure, shortened: as §1

HRAS = system: HRAS
Procedure, shortened: as §1

TP53 = system: TP53
Procedure, shortened: as §1

MYCN = system: MYCN
Procedure, shortened: as §1

Sequence	3' UTR reporter interaction score (PHF6)	3' UTR reporter interaction score (BRCA2)	3' UTR reporter interaction score (FBXW7)	3' UTR reporter interaction score (EZH2)	3' UTR reporter interaction score (MYC)	3' UTR reporter interaction score (NOTCH1)	3' UTR reporter interaction score (ZEB2)	3' UTR reporter interaction score (RB1)	3' UTR reporter interaction score (PHOX2B)	3' UTR reporter interaction score (MYB)	3' UTR reporter interaction score (MYT1L)	3' UTR reporter interaction score (HRAS)	3' UTR reporter interaction score (TP53)	3' UTR reporter interaction score (MYCN)
UCUAGUAAGAGUGGCAGUCG	0.233	0.0816	1.23	-0.108	-0.209	0.0614	0.627	-1.19	1.81	0.506	-0.214	-0.21	0.771	-0.229
UCUCCCAACCCUUGUACCAGUG	0.168	0.0345	-1.26	0.195	0.62	-0.369	0.808	-0.714	-0.32	-6.53	0.779	0.137	-0.706	0.5
UCUCUGGAGGGAAGCACUUUCUG	1.92	1.47	0.444	1.18	0.317	-2.09	-2.97	-0.609	-0.501	-1.99	-1.64	-0.075	0.306	-0.393
UCUGGCUCCGUGUCUUCACUCC	-0.567	0.156	-0.481	0.8	-0.629	-2.05	1.83	0.119	1.22	-1.3	1.3	1.54	0.211	1.42
UCUUGGAGUAGGUCAUUGGGUGG	1.13	0.0799	-2.32	0.166	0.457	-0.846	1.13	-0.403	-1.26	-0.086	-0.548	1.18	0.12	-0.819
UCUUGUGUUCUCUAGAUCAGU	-1.56	0.0649	-0.787	0.661	-0.281	-0.00434	0.366	0.632	-1.16	0.224	-0.612	0.641	-0.0759	0.747
UCUUUGGUUAUCUAGCUGUAUGA	0.471	-0.397	0.588	0.57	-0.165	-0.836	0.948	0.127	-0.756	-0.0519	-0.093	0.757	-1.13	-0.305
UGAAACAUACACGGGAAACCUCUU	2.68	0.436	1.59	0.948	-4.26	2.03	0.135	-0.893	-0.468	-0.521	0.0487	-0.108	-0.757	-2.74
UGAAGGUCUACUGUGUGCCAG	-1.33	-0.173	0.56	0.277	-0.0308	-0.37	0.194	-1.18	0.626	0.992	-2.06	-0.000203	1.34	0.394
UGACAACUAUGGAUGAGCUCU	-0.469	-0.499	0.175	0.197	0.174	-0.339	0.125	-2.61	-0.766	0.977	0.836	-0.056	0.025	0.478
UGAGAACUGAAUUCCAUAGGCU	0.668	-1.45	-1.39	0.351	0.179	-0.287	0.486	-0.182	-0.835	0.897	0.753	-0.193	-0.401	0.165
UGAGAACUGAAUUCCAUGGGUU	1.46	-1.66	-0.989	0.673	-0.0139	-0.245	1.41	-0.62	-1.1	1.11	0.806	-0.164	-0.136	0.702
UGAGACCUCUGGGUUCUGAGCU	-0.429	-3.69	0.371	1.01	0.551	0.17	1.27	0.176	-0.781	-1.3	0.762	-0.0086	-1.24	0.725
UGAGAUGAAGCACUGUAGCUCA	-0.896	1.09	0.851	-0.134	0.59	0.298	0.313	-0.192	-0.89	0.448	-0.193	0.321	-0.632	0.577
UGAGCUAAAUGUGUGCUGGGA	-0.0551	-0.453	-0.406	0.105	-0.176	-0.446	0.263	-0.0745	0.175	0.373	1.13	-0.575	0.237	0.0799
UGAGCUGCUGUACCAAAAU	0.476	-0.363	0.267	-0.391	-0.354	0.526	0.288	0.104	1.09	-0.26	0.273	-0.0544	-0.00622	-1.43
UGAGGUAGUAAGUUGUAUUGUU	-0.107	0.117	0.412	-3.5	-2.7	0.263	0.389	0.186	-0.47	0.37	0.292	0.519	-0.165	-4.78
UGAGGUAGUAGAUUGUAUAGUU	0.283	0.246	0.329	-5.6	-2.66	-0.987	-0.843	0.338	0.189	0.461	0.00725	0.942	-0.262	-4.33
UGAGGUAGUAGGUUGUAUAGUU	2.23	0.954	0.0535	-3.3	-1.94	-0.241	-0.683	-1.04	-1.51	0.376	-0.405	0.245	0.766	-4.02
